Values quoted from earlier work as cited in patent US20030064108A1, “TASTE MASKED PHARMACEUTICAL COMPOSITIONS” (priority 1996, published 2003).

Conditions: 1 g every 6 hours, repeated administration

CC(=O)Nc1ccc(O)cc1 [paracetamol]
mean maximum concentration: about 12 mg/L
mean trough plasma concentration (immediately pre-dose): 3 mg/L
